Source: patent US20260272891A1, “TREATMENT OF AUTOIMMUNE DISEASES AND CANCER WITH PROTEASE INHIBITORS” (Lundquist Institute for Biomedical Innovation at …, priority 2023, published 2026)

How the values were obtained:
[1] = test system: CD3+ T cells; assay: Flow cytometry, Propidium iodide/CD3 staining to verify drug toxicity; settings: for toxicity in gated CD3+ T cells compared to DMSO treatment only: three concentrations, donors D186, D317, D93
[2] = test system: Monocytes stimulated by LPS; assay: ELISA cytokines, monocytes stimulated by LPS; format: cell-based, human; settings: for IL-16 levels / IL-6 / IL-10 / IL-23 / TNF-α: 5000 ng/mL, LPS; for IL-6 / IL-10 / IL-23 / TNF-α: donors D186, D317, D93
From the text: For all experiments, peripheral blood mononuclear cells (PBMC) were isolated either from healthy blood donors as above or purchased from HemaCare as Leukopaks (D186, D317 and D93). PBMC were purified by Ficoll-Hypaque gradient centrifugation (Pharmacia, Piscataway, NJ) and stimulated after freshly isolated as described, or cryopreserved in cryoprotective medium consisting of 90% fetal bovine serum (FBS) in combination with 10% dimethyl sulfoxide (DMSO) at 20 to 30 million cells per vial, and thawed for later stimulation as described. For studies with enriched monocytes, PBMC were cultured in 1% FBS in RPMI 1640, and adhered to sterile plastic tissue culture plates for 1-2 hours; followed by washing off nonadherent PBMC. Remaining adherent monocytes were stimulated as described.
Isolated PBMCs were washed once in 1% FCS RPMI and re-suspended in RPMI-1640 (ThermoFisher Scientific) in 1-2% FCS RPMI. For monocyte isolation, 2×10^6 PBMCs per well were plated in 24-well tissue culture treated plate (ThermoFisher Scientific) at 1 ml each well. Monocytes were allowed to adhere in a 5% CO2 container at 37° C. for 2 hr. Nonadherent cells were removed by thorough washing 2 times with 1% FCS RPMI-1640.

[3] = test system: PBMCs; assay: Flow cytometry, FSC versus SSC gating, percentage of PBMCs; settings: for percentage of PBMCs (FSC versus SSC gating): 24 hrs
[4] = test system: CD14+ cells for monocytes; assay: Flow cytometry, Propidium iodide/CD14 staining to verify drug toxicity
[5] = test system: T cells activated using beads; assay: ELISA cytokines, T cell activation with beads; format: cell-based, human; settings: 5000 ng/ml; for IFN-γ production / IL10 production / IL-4 levels / TNF-α production: activated cells (Bead); for IL-2 production: activated cells, compared to negative control
Method: Conditioned media were tested undiluted, or diluted 1:3 and 1:9 to determine tumor necrosis factor (TNF) α concentration.

[6] = test system: 4T1 cells; assay: Killing of 4T1 cells; format: cell-based, mouse
[7] = test system: PBMC stimulated by LPS; assay: ELISA cytokines, frozen PBMCs stimulated by LPS; format: cell-based, human; settings: for production of LPS-stimulated IL-6 / production of LPS-stimulated IL-10 / production of LPS-stimulated IL-23 / production of LPS-stimulated TNF-α: dose response, three concentrations, donors D186, D317, D93, versus LPS alone
Method: PBMC were purified by Ficoll-Hypaque gradient centrifugation (Pharmacia, Piscataway, NJ) and stimulated after freshly isolated as described, or cryopreserved in cryoprotective medium consisting of 90% fetal bovine serum (FBS) in combination with 10% dimethyl sulfoxide (DMSO) at 20 to 30 million cells per vial, and thawed for later stimulation as described.
Cytokine dose-response analysis was performed using linear regression model testing dose (ordinal variable) and adjusting for the individual donors.

[8] = biological target: SARS-COV-2 Mpro (Severe acute respiratory syndrome coronavirus 2, UniProt P0DTD1); settings: cited from earlier work
[9] = test system: T cells; settings: cells from mice; cited from earlier work

## CC(C)(C)[C@H](NC(=O)C(F)(F)F)C(=O)N1C[C@H]2[C@@H]([C@H]1C(=O)N[C@H](C#N)C[C@@H]1CCNC1=O)C2(C)C [NMV, nirmatrelvir]
[1]; Donor 93, 1250 ng
  cells double positive for Propidium iodide (PI) and CD3 (dead cells): 19.2%
[1]; Donor 93, 2500 ng
  cells double positive for Propidium iodide (PI) and CD3 (dead cells): 17.1%
[1]; Donor 93, 5000 ng
  cells double positive for Propidium iodide (PI) and CD3 (dead cells): 16.0%
[1]; Donor 186, 1250 ng
  cells double positive for Propidium iodide (PI) and CD3 (dead cells): 29.9%
[1]; Donor 186, 2500 ng
  cells double positive for Propidium iodide (PI) and CD3 (dead cells): 31.1%
[1]; Donor 186, 5000 ng
  cells double positive for Propidium iodide (PI) and CD3 (dead cells): 28.5%
[1]; Donor 317, 1250 ng
  cells double positive for Propidium iodide (PI) and CD3 (dead cells): 17.9%
[1]; Donor 317, 2500 ng
  cells double positive for Propidium iodide (PI) and CD3 (dead cells): 16.9%
[1]; Donor 317, 5000 ng
  cells double positive for Propidium iodide (PI) and CD3 (dead cells): 17.1%
[1]
  toxicity in gated CD3+ T cells compared to DMSO treatment only: similar
[2]; donors 317 and 93
  IL-16 levels: increasing levels
[2]
  IL-6: decrease
  IL-10: decrease
  IL-23: decrease
  TNF-α: decrease
[3]; Donor 93, 1250 ng
  percentage of PBMCs (FSC versus SSC gating): 74.8%
[3]; Donor 93, 2500 ng
  percentage of PBMCs (FSC versus SSC gating): 76.2%
[3]; Donor 93, 5000 ng
  percentage of PBMCs (FSC versus SSC gating): 54.6%
[3]; Donor 186, 1250 ng
  percentage of PBMCs (FSC versus SSC gating): 52.8%
[3]; Donor 186, 2500 ng
  percentage of PBMCs (FSC versus SSC gating): 44.8%
[3]; Donor 186, 5000 ng
  percentage of PBMCs (FSC versus SSC gating): 47.7%
[3]; Donor 317, 1250 ng
  percentage of PBMCs (FSC versus SSC gating): 55.4%
[3]; Donor 317, 2500 ng
  percentage of PBMCs (FSC versus SSC gating): 64.4%
[3]; Donor 317, 5000 ng
  percentage of PBMCs (FSC versus SSC gating): 55.9%
[3]; all different concentrations, three donors
  Peripheral Blood Mononuclear Cells' viability: Do Not Affect
[4]; Donor 93, 1250 ng
  cells double positive for Propidium iodide (PI) and CD14 (dead cells): 0.90%
[4]; Donor 93, 2500 ng
  cells double positive for Propidium iodide (PI) and CD14 (dead cells): 0.74%
[4]; Donor 93, 5000 ng
  cells double positive for Propidium iodide (PI) and CD14 (dead cells): 0.64%
[4]; Donor 186, 1250 ng
  cells double positive for Propidium iodide (PI) and CD14 (dead cells): 0.75%
[4]; Donor 186, 2500 ng
  cells double positive for Propidium iodide (PI) and CD14 (dead cells): 1.28%
[4]; Donor 186, 5000 ng
  cells double positive for Propidium iodide (PI) and CD14 (dead cells): 0.74%
[4]; Donor 317, 1250 ng
  cells double positive for Propidium iodide (PI) and CD14 (dead cells): 0.37%
[4]; Donor 317, 2500 ng
  cells double positive for Propidium iodide (PI) and CD14 (dead cells): 0.31%
[4]; Donor 317, 5000 ng
  cells double positive for Propidium iodide (PI) and CD14 (dead cells): 0.32%
[5]
  IFN-γ production: lower
  IL10 production: lower
  IL-4 levels: lower when compared to all groups with activated cells
  TNF-α production: low
  IL-2 production: elevated
[5]; listed as NMR
  TNF-α production: lower
[6]
  killing of 4T1 cells: killed 4T1 cells in a dose responsive manner
[7]; 5000 ng/ml, LPS, three donors
  IL-23 levels: Two of three donors already had no detectable IL-23 levels
[7]
  production of LPS-stimulated IL-6: diminished
  production of LPS-stimulated IL-10: diminished
  production of LPS-stimulated IL-23: diminished
  production of LPS-stimulated TNF-α: diminished
[7]; frozen PBMCs stimulated with LPS
  cytokines except IL-1β (IL-6, IL-10, IL-23, TNF-α): decrease

## CC(C)c1nc(CN(C)C(=O)N[C@H](C(=O)N[C@@H](Cc2ccccc2)C[C@H](O)[C@H](Cc2ccccc2)NC(=O)OCc2cncs2)C(C)C)cs1 [RTV, ritonavir]
[1]; Donor 93, 1250 ng
  cells double positive for Propidium iodide (PI) and CD3 (dead cells): 19.5%
[1]; Donor 93, 2500 ng
  cells double positive for Propidium iodide (PI) and CD3 (dead cells): 19.8%
[1]; Donor 93, 5000 ng
  cells double positive for Propidium iodide (PI) and CD3 (dead cells): 19.5%
[1]; Donor 186, 1250 ng
  cells double positive for Propidium iodide (PI) and CD3 (dead cells): 27.9%
[1]; Donor 186, 2500 ng
  cells double positive for Propidium iodide (PI) and CD3 (dead cells): 28.9%
[1]; Donor 186, 5000 ng
  cells double positive for Propidium iodide (PI) and CD3 (dead cells): 28.6%
[1]; Donor 317, 1250 ng
  cells double positive for Propidium iodide (PI) and CD3 (dead cells): 18.1%
[1]; Donor 317, 2500 ng
  cells double positive for Propidium iodide (PI) and CD3 (dead cells): 17.5%
[1]; Donor 317, 5000 ng
  cells double positive for Propidium iodide (PI) and CD3 (dead cells): 17.8%
[1]
  toxicity in gated CD3+ T cells compared to DMSO treatment only: similar
[2]; donor186
  IL-16 levels: Slightly decreased
[2]; donors 317 and 93
  IL-16 levels: increasing levels
[2]
  IL-6: decrease
  IL-10: decrease
  IL-23: decrease
  TNF-α: decrease
[2]; monocytes, 5000 ng/ml
  IL-1β: decreased
[3]; Donor 93, 1250 ng
  percentage of PBMCs (FSC versus SSC gating): 60.4%
[3]; Donor 93, 2500 ng
  percentage of PBMCs (FSC versus SSC gating): 62.9%
[3]; Donor 93, 5000 ng
  percentage of PBMCs (FSC versus SSC gating): 55.9%
[3]; Donor 186, 1250 ng
  percentage of PBMCs (FSC versus SSC gating): 48.0%
[3]; Donor 186, 2500 ng
  percentage of PBMCs (FSC versus SSC gating): 51.3%
[3]; Donor 186, 5000 ng
  percentage of PBMCs (FSC versus SSC gating): 44.9%
[3]; Donor 317, 1250 ng
  percentage of PBMCs (FSC versus SSC gating): 61.3%
[3]; Donor 317, 2500 ng
  percentage of PBMCs (FSC versus SSC gating): 56.2%
[3]; Donor 317, 5000 ng
  percentage of PBMCs (FSC versus SSC gating): 57.4%
[4]; Donor 93, 1250 ng
  cells double positive for Propidium iodide (PI) and CD14 (dead cells): 0.90%
[4]; Donor 93, 2500 ng
  cells double positive for Propidium iodide (PI) and CD14 (dead cells): 1.12%
[4]; Donor 93, 5000 ng
  cells double positive for Propidium iodide (PI) and CD14 (dead cells): 0.81%
[4]; Donor 186, 1250 ng
  cells double positive for Propidium iodide (PI) and CD14 (dead cells): 2.14%
[4]; Donor 186, 2500 ng
  cells double positive for Propidium iodide (PI) and CD14 (dead cells): 1.71%
[4]; Donor 186, 5000 ng
  cells double positive for Propidium iodide (PI) and CD14 (dead cells): 1.71%
[4]; Donor 317, 1250 ng
  cells double positive for Propidium iodide (PI) and CD14 (dead cells): 0.42%
[4]; Donor 317, 2500 ng
  cells double positive for Propidium iodide (PI) and CD14 (dead cells): 0.38%
[4]; Donor 317, 5000 ng
  cells double positive for Propidium iodide (PI) and CD14 (dead cells): 0.44%
[5]
  IFN-γ production: higher levels
  IL10 production: higher
  IL-4 levels: higher
  TNF-α production: high levels
  IL-2 production: elevated
[8]
  activity against SARS-COV-2 Mpro: lacks activity
[6]
  killing of 4T1 cells: killed 4T1 cells in a dose responsive manner
[7]
  production of LPS-stimulated IL-6: no effect
  production of LPS-stimulated IL-10: no effect
  production of LPS-stimulated IL-23: no effect
  production of LPS-stimulated TNF-α: no effect
[9]
  IL2, IFN-gamma and TNF-alpha secretion: decreasing
